Measurements taken from patent US20250230155A1 (Vanderbilt University, priority 2021, published 2025).

Target: T1, human mAChR M4 (Homo sapiens, UniProt P08173)
T1 construct: expressed in transfected cells
T1 sequence (P08173 1-479): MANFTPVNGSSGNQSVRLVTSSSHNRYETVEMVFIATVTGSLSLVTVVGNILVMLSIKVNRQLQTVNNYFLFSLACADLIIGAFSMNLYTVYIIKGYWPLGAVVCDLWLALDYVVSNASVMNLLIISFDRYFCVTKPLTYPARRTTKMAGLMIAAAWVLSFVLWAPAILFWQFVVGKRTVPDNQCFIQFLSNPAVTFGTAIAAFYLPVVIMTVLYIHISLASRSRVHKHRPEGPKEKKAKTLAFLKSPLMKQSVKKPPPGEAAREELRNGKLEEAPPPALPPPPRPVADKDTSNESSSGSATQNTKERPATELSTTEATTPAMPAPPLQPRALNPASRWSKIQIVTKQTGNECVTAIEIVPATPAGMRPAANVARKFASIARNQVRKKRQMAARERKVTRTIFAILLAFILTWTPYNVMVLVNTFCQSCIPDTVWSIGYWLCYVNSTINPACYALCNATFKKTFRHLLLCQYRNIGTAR
Test: mAChR M4 cell-based functional assay (calcium mobilization, CHO-K1 hM4-Gqi5 cells)
Settings: for Emax at 30 µM: CHO-K1, % ACh maximum at 30 μM, human M4; for EC50: positive allosteric modulator activity, increase in the EC20 acetylcholine response, CHO-K1 hM4-Gqi5 cells, read-out: Human M4 EC50
Method in brief: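 Fluorescent calcium read-out (Fluo-4 AM, FDSS, 1 Hz) in hM4-Gqi5 CHO-K1 cells, 11-point 1:3 compound series. Agonism scored on compound addition, PAM activity as increase of the 144 s EC20 acetylcholine response, antagonism as decrease of the 230 s EC80 response; four-parameter logistic fits give EC50 and Emax.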

| Emax at 30 µM [%] | EC50 [nM] | SMILES | Emax (CHO-K1) [%] |
| --- | --- | --- | --- |
| 34 | 970 | Cc1c(C#N)nnc(N2CCc3ncc(Nc4ccc(Cl)cc4F)cc3C2)c1C [compound 46, 6-[3-(4-chloro-2-fluoro-anilino)-7,8-dihydro-5H-1,6-naphthyridin-6-yl]-4,5-dimethyl-pyridazine-3-carbonitrile] | – |
| 90 | 328 | Cc1nc(Cl)c(C)c(N2CCc3ncc(Oc4ccccc4F)cc3C2)n1 [compound 204, 6-(6-chloro-2,5-dimethyl-pyrimidin-4-yl)-3-(2-fluorophenoxy)-7,8-dihydro-5H-1,6-naphthyridine] | – |
| 68 | 1910 | Cc1c(C#N)nnc(N2CCc3ncc(-c4cnn(CC(C)(C)O)c4)cc3C2)c1C [Example 327, 6-(3-(1-(2-hydroxy-2-methylpropyl)-1H-pyrazol-4-yl)-7,8-dihydro-1,6-naphthyridin-6(5H)-yl)-4,5-dimethylpyridazine-3-carbonitrile] | – |
| 90 | 101 | Cc1cc(C(=O)N2CC(C(F)F)C2)nnc1N1CCc2ncc(Nc3ccnn3C)cc2C1 [Example 558, (3-(difluoromethyl)azetidin-1-yl)(5-methyl-6-(3-((1-methyl-1H-pyrazol-5-yl)amino)-7,8-dihydro-1,6-naphthyridin-6(5H)-yl)pyridazin-3-yl)methanone] | – |
| 76 | 229 | Cc1cc(C#N)cnc1N1CCc2ncc(CC(F)(F)F)cc2C1 [Example 423, 5-methyl-6-(3-(2,2,2-trifluoroethyl)-7,8-dihydro-1,6-naphthyridin-6(5H)-yl)nicotinonitrile] | – |
| 84 | 313 | Cc1cc(C(=O)NCc2ccncc2)cnc1N1CCc2ncc(-c3ccc(C4CC4)nc3)cc2C1 [Example 483, 6-(3-(6-cyclopropylpyridin-3-yl)-7,8-dihydro-1,6-naphthyridin-6(5H)-yl)-5-methyl-N-(pyridin-4-ylmethyl)nicotinamide] | – |
| 90 | 1380 | Cc1c(C#N)nnc(N2CCc3ncc(N4CCO[C@H](c5ccccc5)C4)cc3C2)c1C [Example 376, (R)-4,5-dimethyl-6-(3-(2-phenylmorpholino)-7,8-dihydro-1,6-naphthyridin-6(5H)-yl)pyridazine-3-carbonitrile] | – |
| 96 | 482 | Cc1cc(C(=O)NC2(c3cccnc3)CC2)nnc1N1CCc2ncc(CC(F)(F)F)cc2C1 [Example 585, 5-methyl-N-(1-(pyridin-3-yl)cyclopropyl)-6-(3-(2,2,2-trifluoroethyl)-7,8-dihydro-1,6-naphthyridin-6(5H)-yl)pyridazine-3-carboxamide] | – |
| 62 | 306 | Cc1cc(C#N)cnc1N1CCc2ncc(N3CCCn4nc(C(F)(F)F)cc43)cc2C1 [Example 412, 5-methyl-6-(3-(2-(trifluoromethyl)-6,7-dihydropyrazolo[1,5-a]pyrimidin-4(5H)-yl)-7,8-dihydro-1,6-naphthyridin-6(5H)-yl)nicotinonitrile] | – |
| 103 | 709 | COCc1nc(Cl)c(C)c(N2CCc3ncc(C(F)(F)F)cc3C2)n1 [compound 214, 6-(6-chloro-2-(methoxymethyl)-5-methylpyrimidin-4-yl)-3-(trifluoromethyl)-5,6,7,8-tetrahydro-1,6-naphthyridine] | – |
| 103 | 635 | Cc1cc(C(=O)N2CCN(C)CC2)nnc1N1CCc2ncc(N3CCCn4nccc43)cc2C1 [Example 514, (6-(3-(6,7-dihydropyrazolo[1,5-a]pyrimidin-4(5H)-yl)-7,8-dihydro-1,6-naphthyridin-6(5H)-yl)-5-methylpyridazin-3-yl)(4-methylpiperazin-1-yl)methanone] | – |
| 86 | 64 | Cc1c(C#N)nnc(N2CCc3ncc(N4CCCn5nccc54)cc3C2)c1C [Example 342, 6-(3-(6,7-dihydropyrazolo[1,5-a]pyrimidin-4(5H)-yl)-7,8-dihydro-1,6-naphthyridin-6(5H)-yl)-4,5-dimethylpyridazine-3-carbonitrile] | – |
| 102 | 31 | Cc1cc(C(=O)NCc2cncs2)nnc1N1CCc2ncc(-c3ccnn3C)cc2C1 [Example 516, 5-methyl-6-(3-(1-methyl-1H-pyrazol-5-yl)-7,8-dihydro-1,6-naphthyridin-6(5H)-yl)-N-(thiazol-5-ylmethyl)pyridazine-3-carboxamide] | – |
| 99 | 176 | Cc1cc(C(=O)N2CC(F)C2)nnc1N1CCc2ncc(CC(F)(F)F)cc2C1 [Example 586, (3-fluoroazetidin-1-yl)(5-methyl-6-(3-(2,2,2-trifluoroethyl)-7,8-dihydro-1,6-naphthyridin-6(5H)-yl)pyridazin-3-yl)methanone] | – |
| 58 | ≥ 10000 | Cc1cc(C(=O)NCC2CCCCO2)cnc1N1CCc2ncccc2C1 (centres unmarked) [compound 161, 6-(7,8-dihydro-5H-1,6-naphthyridin-6-yl)-5-methyl-N-(tetrahydropyran-2-ylmethyl)pyridine-3-carboxamide] | – |
| 71 | 246 | Cc1c(C#N)nnc(N2CCc3ncc(Oc4ccc(F)cc4)cc3C2)c1C [Example 300, 6-(3-(4-fluorophenoxy)-7,8-dihydro-1,6-naphthyridin-6(5H)-yl)-4,5-dimethylpyridazine-3-carbonitrile] | – |
| 91 | 315 | COc1cc(-c2cnc3c(c2)CN(c2ncc(C#N)cc2C)CC3)ccn1 [Example 338, 6-(3-(2-methoxypyridin-4-yl)-7,8-dihydro-1,6-naphthyridin-6(5H)-yl)-5-methylnicotinonitrile] | – |
| 102 | 32 | Cc1cc(C(=O)N2CC(N(C)C)C2)nnc1N1CCc2ncc(N3CCCn4nccc43)cc2C1 [Example 518, (6-(3-(6,7-dihydropyrazolo[1,5-a]pyrimidin-4(5H)-yl)-7,8-dihydro-1,6-naphthyridin-6(5H)-yl)-5-methylpyridazin-3-yl)(3-(dimethylamino)azetidin-1-yl)methanone] | – |
| 98 | 74 | Cc1cc2n(n1)CCCN2c1cnc2c(c1)CN(c1nnc(C#N)cc1C)CC2 [Example 382, 5-methyl-6-(3-(2-methyl-6,7-dihydropyrazolo[1,5-a]pyrimidin-4(5H)-yl)-7,8-dihydro-1,6-naphthyridin-6(5H)-yl)pyridazine-3-carbonitrile] | – |
| 89 | 206 | Cc1cnccc1CNC(=O)c1cnc(N2CCc3ncc(Nc4ccnn4C)cc3C2)c(C)c1 [Example 474, 5-methyl-6-(3-((1-methyl-1H-pyrazol-5-yl)amino)-7,8-dihydro-1,6-naphthyridin-6(5H)-yl)-N-((3-methylpyridin-4-yl)methyl)nicotinamide] | – |
| 65 | 324 | Cc1c(C#N)nnc(N2CCc3ncc(Nc4ncc(F)cc4F)cc3C2)c1C [compound 78, 6-[3-[(3,5-difluoro-2-pyridyl)amino]-7,8-dihydro-5H-1,6-naphthyridin-6-yl]-4,5-dimethyl-pyridazine-3-carbonitrile] | – |

| SMILES | Emax at 30 µM [%] | EC50 [nM] | Emax (CHO-K1) [%] |
| --- | --- | --- | --- |
| Cc1cc(C#N)cnc1N1CCc2nc(C)c(N3CCOC(C)(C)C3)cc2C1 [Example 377, 6-(3-(2,2-dimethylmorpholino)-2-methyl-7,8-dihydro-1,6-naphthyridin-6(5H)-yl)-5-methylnicotinonitrile] | – | 760 | 76 |
